“And” between values parts separate entries of the source, which are not always exact repeats. Equal values may be shown once.

The source of these data is patent US11584707B2, “Non-coordinating anion type activators containing cation having aryldiamine groups and uses thereof” (ExxonMobil Chemical Patents Inc., priority 2019, dated 2023).

The nature of experiment [1]: Ethylene homopolymerization (RUN B) in parallel pressure reactor. The note with it: catalyst = 20 nmol, activator = 22 nmol, isohexane 5 mL, tri(n-octyl)aluminum = 500 nmol, T = 100° C., P = 100 PSI. The protocol:
(§1) Unless stated otherwise, solutions of the metal complexes and activators were prepared in a drybox using toluene or methylcyclohexane. Concentrations were typically 0.2 mmol/L. Tri-n-octylaluminum (TNOAL, neat, AkzoNobel) was typically used as a scavenger. Concentration of the TNOAL solution in toluene was from 0.5 to 2 mmol/L.
(§2) Polymerizations were carried out in a parallel pressure reactor, as generally described in U.S. Pat. Nos. 6,306,658; 6,455,316; 6,489,168; WO 2000/009255; and Murphy, V. et al. (2003) “A Fully Integrated High-Throughput Screening Methodology for the Discovery of New Polyolefin Catalysts: Discovery of a New Class of High Temperature Single-Site Group (IV) Copolymerization Catalysts,” J. Am. Chem. Soc., v.125, pp. 4306-4317, each of which is incorporated by reference. The experiments were conducted in an inert atmosphere (N2) drybox using autoclaves equipped with an external heater for temperature control, glass inserts (internal volume of reactor=23.5 mL for C2 and C2/C8; 22.5 mL for C3 runs), septum inlets, regulated supply of nitrogen, ethylene and propylene, and equipped with disposable PEEK mechanical stirrers (800 RPM). The autoclaves were prepared by purging with dry nitrogen at 110° C. or 115° C. for 5 hours and then at 25° C. for 5 hours. Although the specific quantities, temperatures, solvents, reactants, reactant ratios, pressures, and other variables are frequently changed from one polymerization run to the next, the following describes a typical polymerization performed in a parallel pressure reactor.
RUN B: Ethylene homopolymerization (PE). A series of ethylene polymerizations were performed in the parallel pressure reactor according to the procedure described above. In these studies rac-dimethylsilyl-bis(indenyl)hafnium dimethyl (MCN-1) was used along with ammonium borate activators. […] When sufficient polymer yield was attained (e.g., at least ˜10 mg), the polyethylene product was analyzed by Rapid GPC, described below.

A short description of experiment [2]: Ethylene-octene copolymerization (RUN A) in parallel pressure reactor. Conditions: catalyst = 20 nmol, activator = 22 nmol, 1-octene = 100 μL, isohexane 5 mL, tri(n-octyl)aluminum = 500 nmol, T = 100° C., P = 100 PSI. The procedure:
as §1, §2
RUN A: Ethylene-octene copolymerization (EO). A series of ethylene-octene polymerizations were performed in the parallel pressure reactor according to the procedure described above. In these studies rac-dimethylsilyl-bis(indenyl)hafnium dimethyl (MCN-1) was used along with ammonium borate activators. […] When sufficient polymer yield was attained (e.g., at least ˜10 mg), the polyethylene product was analyzed by Rapid GPC, described below.

For `CCCCCCCCCCCCCCCCCCN(C)c1cccc2c([NH+](C)CCCCCCCCCCCCCCCCCC)cccc12.Fc1c(F)c(F)c([B-](c2c(F)c(F)c(F)c(F)c2F)(c2c(F)c(F)c(F)c(F)c2F)c2c(F)c(F)c(F)c(F)c2F)c(F)c1F` [DANH-BF20], the “activity” value in experiment [1] was 406 kg/mmol/h and 410 kg/mmol/h and 442 kg/mmol/h and 454 kg/mmol/h; in experiment [2], 545 kg/mmol/h and 661 kg/mmol/h and 448 kg/mmol/h and 492 kg/mmol/h.
For `CCCCCCCCCCCCCCCCCCN(C)c1cccc2c([NH+](C)CCCCCCCCCCCCCCCCCC)cccc12.Fc1c(F)c(F)c2c(F)c([B-](c3c(F)c(F)c4c(F)c(F)c(F)c(F)c4c3F)(c3c(F)c(F)c4c(F)c(F)c(F)c(F)c4c3F)c3c(F)c(F)c4c(F)c(F)c(F)c(F)c4c3F)c(F)c(F)c2c1F` [DANH-BF28], the “activity” value is 388 kg/mmol/h and 364 kg/mmol/h and 478 kg/mmol/h and 416 kg/mmol/h in experiment [1]; 466 kg/mmol/h and 445 kg/mmol/h and 421 kg/mmol/h and 397 kg/mmol/h in experiment [2].
“N,N-Dimethylanilinium tetrakis(pentafluorophenyl)borate [DMAH-BF20, reference compound]”: the “activity” value was 366 kg/mmol/h and 380 kg/mmol/h and 516 kg/mmol/h and 454 kg/mmol/h in experiment [1]; 526 kg/mmol/h and 359 kg/mmol/h and 668 kg/mmol/h and 689 kg/mmol/h in experiment [2].
